Assay results taken from ChEMBL document CHEMBL1201862, “PubChem BioAssay data set” (2004).
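Step 1: Grow cells in 96-well plates. Step 2: Expose to compound for 48 hours at 5 concentrations. Step 3: Interpolate endpoints linearly; if unreached, use highest concentration. Here, GI50 denotes the concentration required for 50% inhibition of growth.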 Calls of active or inactive are those of the source. No stated cut-off is given here; in the data, active = GI50 up to about 1.1 µM and inactive = higher.

Columns and labels:
Assay in all cases: NCI-60 cell line screen, 48 h
BT-549 = system: BT-549
COLO 205 = system: COLO 205
OVCAR-5 = system: OVCAR-5
OVCAR-4 = system: OVCAR-4
DU-145 = system: DU-145
TK-10 = system: TK-10
SK-OV-3 = system: SK-OV-3
UACC-62 = system: UACC-62
M14 = system: M14
SW-620 = system: SW-620
MDA-MB-231 = system: MDA-MB-231
CAKI-1 = system: CAKI-1
T47D = system: T47D
SF-268 = system: SF-268
SK-MEL-2 = system: SK-MEL-2
SN12C = system: SN12C
NCI/ADR-RES = system: NCI/ADR-RES
SK-MEL-5 = system: SK-MEL-5
PC-3 = system: PC-3
Malme-3M = system: Malme-3M

Measured: GI50

CC1=CC(=O)C[C@]2(C)[C@@H](O)CC(C(C)CO)C[C@@H]12 (stereo partly drawn)
inactive: BT-549 > 100 µM | COLO 205 > 100 µM | OVCAR-5 > 100 µM | OVCAR-4 > 100 µM | DU-145 > 100 µM | TK-10 > 100 µM | SK-OV-3 > 100 µM | UACC-62 > 100 µM | M14 > 100 µM | SW-620 > 100 µM | MDA-MB-231 > 100 µM | CAKI-1 > 100 µM | T47D > 100 µM | SF-268 > 100 µM | SK-MEL-2 > 100 µM | SN12C > 100 µM | NCI/ADR-RES > 100 µM | SK-MEL-5 > 100 µM

O=C1Nc2ccccc2/C1=C/c1ccccc1
inactive: BT-549 16.4 µM | COLO 205 16.8 µM | OVCAR-5 18.5 µM | OVCAR-4 23.6 µM | DU-145 13.8 µM | TK-10 21.7 µM | SK-OV-3 28.8 µM | UACC-62 13.9 µM | M14 16.7 µM | PC-3 14.6 µM | SW-620 25.2 µM | MDA-MB-231 17.8 µM | CAKI-1 29.2 µM | T47D 12.3 µM | SF-268 15.6 µM | SK-MEL-2 14.3 µM | SN12C 14.1 µM | NCI/ADR-RES 22.8 µM | SK-MEL-5 13.3 µM

CCOC(=O)c1c(NC(=O)c2cccs2)sc2c1CCC2
inactive: BT-549 > 100 µM | COLO 205 > 100 µM | OVCAR-5 > 100 µM | DU-145 > 100 µM | TK-10 > 100 µM | UACC-62 > 100 µM | M14 > 100 µM | PC-3 > 100 µM | MDA-MB-231 > 100 µM | CAKI-1 > 100 µM | T47D > 100 µM | SF-268 > 100 µM | SK-MEL-2 > 100 µM | SN12C > 100 µM | NCI/ADR-RES > 100 µM | SK-MEL-5 > 100 µM

COc1cc(/C=C2\N=C(c3ccccc3)N(c3nc4ccccc4s3)C2=O)cc(OC)c1OC
inactive: BT-549 17.5 µM | OVCAR-5 > 100 µM | OVCAR-4 23.9 µM | DU-145 34.1 µM | TK-10 > 100 µM | M14 31.4 µM | PC-3 50.5 µM | SW-620 31.3 µM | MDA-MB-231 40.3 µM | CAKI-1 70.6 µM | T47D 28.9 µM | SF-268 26.5 µM | SK-MEL-2 90.8 µM | SN12C 26.5 µM | NCI/ADR-RES 20.4 µM | SK-MEL-5 49.9 µM

CN(C)c1ccc(/C=C(\NC(=O)c2ccccc2)C(=O)NC(CC(=O)O)C(=O)O)cc1 (stereo not drawn)
inactive: BT-549 > 100 µM | COLO 205 > 100 µM | OVCAR-5 > 100 µM | OVCAR-4 53.2 µM | DU-145 > 100 µM | TK-10 > 100 µM | SK-OV-3 > 100 µM | UACC-62 82 µM | M14 > 100 µM | PC-3 > 100 µM | SW-620 > 100 µM | MDA-MB-231 > 100 µM | CAKI-1 > 100 µM | T47D > 100 µM | SF-268 61.4 µM | SK-MEL-2 > 100 µM | SN12C > 100 µM | NCI/ADR-RES 43.7 µM | SK-MEL-5 94.6 µM

N#CSC#CCCC#CSC#N
inactive: BT-549 21.7 µM | COLO 205 12.9 µM | OVCAR-5 20.6 µM | OVCAR-4 27.1 µM | DU-145 15 µM | TK-10 17.9 µM | Malme-3M 17.9 µM | SK-OV-3 16.1 µM | UACC-62 17 µM | M14 12.9 µM | PC-3 20.9 µM | SW-620 14.2 µM | MDA-MB-231 17.7 µM | CAKI-1 19 µM | SF-268 30.1 µM | SK-MEL-2 20.3 µM | SN12C 17.7 µM | NCI/ADR-RES 28.2 µM | SK-MEL-5 18.2 µM

C[C@@H]1CC[C@H]2C(C)(C)[C@H]3C[C@@]12CC[C@@]3(C)O [CEDROL]
inactive: BT-549 > 100 µM | COLO 205 > 100 µM | OVCAR-5 > 100 µM | OVCAR-4 > 100 µM | DU-145 > 100 µM | TK-10 > 100 µM | SK-OV-3 > 100 µM | UACC-62 > 100 µM | M14 > 100 µM | PC-3 > 100 µM | SW-620 > 100 µM | MDA-MB-231 > 100 µM | CAKI-1 > 100 µM | T47D > 100 µM | SF-268 > 100 µM | SK-MEL-2 > 100 µM | SN12C 26.7 µM | NCI/ADR-RES > 100 µM | SK-MEL-5 42.7 µM

CC(=O)OCC(Br)C1(C)CCC(C(C)(C)Br)O1 (stereo not drawn)
inactive: BT-549 79.6 µM | COLO 205 51.2 µM | OVCAR-5 > 100 µM | OVCAR-4 11.2 µM | DU-145 > 100 µM | TK-10 > 100 µM | Malme-3M 83.6 µM | SK-OV-3 > 100 µM | M14 89.7 µM | PC-3 29.4 µM | SW-620 55.6 µM | MDA-MB-231 > 100 µM | CAKI-1 > 100 µM | SF-268 > 100 µM | SK-MEL-2 39.1 µM | SN12C 94.2 µM | NCI/ADR-RES > 100 µM | SK-MEL-5 35.9 µM

FC(F)(F)c1ccc(/N=C/C=C(/Nc2ccc(C(F)(F)F)cc2)c2ccc(Cl)cc2)cc1
inactive: COLO 205 10.5 µM | OVCAR-5 17.9 µM | OVCAR-4 14 µM | DU-145 13.5 µM | TK-10 15.8 µM | Malme-3M 19.4 µM | SK-OV-3 16.4 µM | UACC-62 1.82 µM | M14 12.8 µM | PC-3 18 µM | SW-620 11 µM | MDA-MB-231 14.5 µM | CAKI-1 3.49 µM | T47D 10.3 µM | SF-268 12.1 µM | SK-MEL-2 8.34 µM | SN12C 10.4 µM | NCI/ADR-RES 13.7 µM | SK-MEL-5 6.56 µM

COC(=O)/C=C(\C)CC/C=C(\C)CCC(O)C(C)(C)O (stereo not drawn)
inactive: BT-549 29 µM | COLO 205 19.7 µM | OVCAR-5 60.4 µM | OVCAR-4 48.5 µM | TK-10 45 µM | Malme-3M 17.5 µM | SK-OV-3 > 100 µM | UACC-62 25.1 µM | M14 27.1 µM | PC-3 14.8 µM | SW-620 22.7 µM | MDA-MB-231 > 100 µM | CAKI-1 20.4 µM | SK-MEL-2 15.9 µM | SN12C 19.3 µM | NCI/ADR-RES 18.7 µM | SK-MEL-5 16.6 µM

CNC1=CC(=O)C2=C(C1=O)[C@H]1CC[C@]3(C)C(=O)CC[C@H]3[C@@H]1CC2
inactive: BT-549 16.4 µM | COLO 205 13.7 µM | OVCAR-5 22.7 µM | OVCAR-4 9.38 µM | DU-145 15 µM | TK-10 62.4 µM | SK-OV-3 43.6 µM | UACC-62 14 µM | M14 13.5 µM | PC-3 13.1 µM | SW-620 22.9 µM | MDA-MB-231 24.5 µM | CAKI-1 13.6 µM | T47D 18.9 µM | SK-MEL-2 2.63 µM | SN12C 19.9 µM | NCI/ADR-RES 13 µM | SK-MEL-5 8.18 µM
